{"source": "patent US12708673B2", "about": "“Methods and compositions related to peptides and proteins with c-terminal elements” (Sanford Burnham Prebys Medical Discovery Institute, priority 2008, dated 2026)", "key": {"PPC-1 cells [1]": {"tested_on": "PPC-1 cells", "assay": "T7 phage binding to PPC-1 (PPC1) cells at 4° C., quantified by titration/plaque assay", "format": "cell-based, human", "procedure": "(§1) FIG. 2A: Binding of T7 phage to prostate cancer cells depends on the display of a C-terminal arginine on the phage particles. PPC1 cells were incubated with T7 bacteriophage displaying derivatives of the G7 (upper graph) or RPARPAR peptide (SEQ ID NO: 2) (lower graph) at 4° C., and the bound phage was quantified by plaque assay. Binding is expressed in fold over of the non-binding G7 control phage. FIG. 2B: Phage displaying C-terminal arginine is internalized into cultured PPC1 cells (arrow, nuclear internalization; arrowhead, cytoplasmic internalization). A panel of T7 phage clones were incubated at 37° C. with PPC1 cells grown on collagen-coated coverslips, stained with anti T7 antibody and imaged by confocal microscopy.\n(§2) Phage display. For in vivo phage display, mice were injected intravenously with 10^10 plaque-forming units (pfu) of T7 phage followed by perfusion of the circulatory system and determination of the bound phage in target organs by titration. For cell binding studies on cultured cells (in vitro display) and organ-derived cell suspensions (ex vivo display), the cells were incubated with 10^9 pfu of phage at 4° C., washed, lysed, and quantified by titration. Incubation at 37° C. followed by low pH wash (glycine-HCl, pH 2.5) was used to assess the amount of internalized phage.\n(§3) For biopanning and phage binding studies (Hoffman, J. A. et al., 2004), cultured cells were grown to confluence and harvested with trypsin and mouse organs were dissociated using Medimachine (BD Biosciences, San Jose, CA). To measure phage binding, 10^6 cells in binding buffer (DMEM containing 1% BSA) were incubated with 10^9 pfu/ml of T7 phage for 1 hour at 4° C. The cells were washed 4 times with the binding buffer, lysed in LB bacterial growth medium containing 1% NP-40, and titrated. Phage internalization assays used the same procedure, except that the cells were incubated with the phage at 37° C., and that an acidic buffer (500 mM sodium chloride, 0.1 M glycine, 1% BSA, pH 2.5) was used instead of binding buffer in the second wash.\n(§4) Centrifugation on a silicone oil cushion (1.03 g/ml) was used to separate unbound phage from cells during time course experiments. Inhibitors of phage binding and internalization (heparin, chondroitin, glycocalyx removal enzymes, endocytosis inhibitors, free peptides, quantum dots and UV-inactivated phage) were added to the cells 20 minutes prior to incubation with phage. Endocytosis inhibitors used in this study were the following: nystatin (50 μg/ml), genistein (100 μg/ml), chlorpromazine (5 μg/ml), 5-(N-ethyl-N-isopropyl) amiloride (100 μM), wortmannin (10 μM)."}, "PPC-1 cells [2]": {"tested_on": "PPC-1 cells", "assay": "T7 phage internalization into PPC-1 (PPC1) cells at 37° C. (acid wash and titration, or anti-T7 staining and confocal imaging)", "format": "cell-based, human", "procedure": "as §1, §2, §3, §4\nImmunofluorescence staining. Cultured cells (2×10^5 cells) were grown in 6-well tissue culture plates on collagen-I coated coverslips (BD Biosciences, San Jose, CA) overnight at 37° C. in 5% CO2, and incubated with 10^8 pfu of T7 phage. The cells were fixed in 4% paraformaldehyde or cold (−20° C.) methanol, and stained with antibodies. Nuclei were stained with DAPI or […]. A polyclonal rabbit anti-T7 antibody was generated in-house as described previously (Laakkonen, P. et al. 2002b), except that an additional phage purification step using […] centrifugation was included. Other primary antibodies used were rat anti-mouse CD31 monoclonal antibody (BD Biosciences), rabbit anti-NRP-1, mouse anti-human Lamp-1, mouse anti-human caveolin (Millipore, Temecula, CA), mouse anti-NRP-1 (Miltenyi Biotec Inc., Auburn, CA), mouse anti-human EEA-1 (BD Biosciences, San Jose, CA). The secondary antibodies, Alexa594 goat antibodies to mouse, rat, and rabbit immunoglobulins and Alexa488 donkey anti-rabbit antibody were from Invitrogen (Carlsbad, CA). Cells and tissue sections were examined by confocal microscopy (Fluoview 500, Olympus America Inc., Center Valley, PA)."}, "PPC-1 cells [3]": {"tested_on": "PPC-1 cells", "assay": "Binding and internalization of peptide-coated quantum dots by PPC-1 cells (confocal/fluorescence microscopy)", "format": "cell-based, human", "details": "excess of RPARPAR-displaying phage"}, "PC-3": {"tested_on": "PC-3", "assay": "RPARPAR phage binding to cultured cells at 4° C.", "format": "cell-based, human", "details": "PC-3 prostate cancer cells", "procedure": "(§5) FIG. 15A: Binding of RPARPAR (SEQ ID NO:2) phage to the cultured cells at 4° C. in vitro. FIG. 15B: Binding of RPARPAR (SEQ ID NO:2) phage to primary cell suspensions of mouse organs at 4° C. ex vivo. FIGS. 15C and 15D: Tissue distribution of intravenously injected RPARPAR (SEQ ID NO:2) phage after 20 minutes of circulation time. FIG. 15C: Phage was quantified by titration, tissue binding is expressed as fold G7 phage. Statistical analysis was performed by Student's t-test (c). n=3; error bars indicate s.d.; double asterisk, p<0.01, triple asterisk, p<0.001. FIG. 15D (panels d and e): Immunofluorescence localization of T7 phage (light coloring) in lung sections of mice injected intravenously with RPARPAR (SEQ ID NO:2) (d) or G7 (e) phage. Widespread immunoreactivity is present in the lungs of mice injected with RPARPAR (SEQ ID NO:2) (arrowheads in d) but not G7 (with occasional labeling seen in vessels, arrows in e). Scale bar: 50 μm.\nas §2, with “Incubation at 37° C. followed by low pH wash (glycine-HCl, pH 2.5) was used to assess the amount of internalized phage.” left out"}, "4T1": {"tested_on": "4T1", "assay": "RPARPAR phage binding to cultured cells at 4° C.", "format": "cell-based", "details": "4T1 breast cancer", "procedure": "as §5, §2, §3"}, "B16F10": {"tested_on": "B16F10", "assay": "RPARPAR phage binding to cultured cells at 4° C.", "format": "cell-based", "details": "B16F10 melanoma cells", "procedure": "as §5, §2, §3"}, "M21 melanoma cells": {"tested_on": "M21 melanoma cells", "assay": "RPARPAR phage binding to cultured cells at 4° C.", "format": "cell-based", "details": "non-transfected M21", "procedure": "as §5, §2, §3"}, "[4]": {"tested_on": "MDA-MB-435 human cancer cells", "assay": "RPARPAR phage binding to cultured cells at 4° C.", "format": "cell-based", "procedure": "as §5, §2, §3"}, "MIA PaCa-2": {"tested_on": "MIA PaCa-2", "assay": "RPARPAR phage binding to cultured cells at 4° C.", "format": "cell-based", "details": "MIA PaCa-2 pancreatic carcinoma", "procedure": "as §5, §2, §3"}, "PDAC1.3": {"tested_on": "PDAC1.3", "assay": "RPARPAR phage binding to cultured cells at 4° C.", "format": "cell-based", "details": "PDAC1.3 pancreatic carcinoma", "procedure": "as §5, §2, §3"}, "[5]": {"tested_on": "human umbilical vein endothelial cells (HUVEC)", "assay": "RPARPAR phage binding to cultured cells at 4° C.", "format": "cell-based", "procedure": "as §5, §2, §3"}, "[6]": {"tested_on": "murine vascular endothelial cells (F2)", "assay": "RPARPAR phage binding to cultured cells at 4° C.", "format": "cell-based", "procedure": "as §5, §2, §3"}, "[7]": {"tested_on": "primary cells derived from normal mouse organs", "assay": "RPARPAR phage binding to primary cell suspensions of mouse organs at 4° C. ex vivo", "format": "cell-based", "details": "panel of normal mouse organs", "procedure": "as §5\nas §2, with “Incubation at 37° C. followed by low pH wash (glycine-HCl, pH 2.5) was used to assess the amount of internalized phage.” left out"}, "[8]": {"assay": "Tissue distribution of intravenously injected phage in mice (titration, immunofluorescence)", "format": "in vivo, mouse", "details": "intravenous", "procedure": "as §5, §2\nIn vivo phage homing studies in mice were carried out by injecting 10^10 pfu of T7 phage into tail vein and 10 minutes to 1 hour later, the mice were perfused with DMEM through the left ventricle of the heart. The organs of interest were collected, homogenized in 1% NP40 and the phage was quantified by titration."}}, "note": "“Also recorded” adds a separate entry of the source."}
{"substance": "RPARPAR [RPARPAR phage]", "values": [{"measurement": "Phage binding to PPC-1 cells (in words)", "setting": "PPC-1 cells [1]; 4° C.", "value": "stronger binding than the GGGGGGR; also recorded: robust binding and internalization"}, {"measurement": "Time to plateau of phage binding", "setting": "PPC-1 cells [1]; 4° C.", "value": 20, "unit": "min"}, {"measurement": "Phage binding after trypsin treatment of PPC-1 cells", "setting": "PPC-1 cells [1]; trypsin treatment of cells prior to binding, data not shown", "value": "decreased binding"}, {"measurement": "Effect of pre-incubation with UV-inactivated phage on iRGD phage internalization", "setting": "PPC-1 cells [2]", "value": "decreased"}, {"measurement": "Phage internalization into PPC-1 cells (in words)", "setting": "PPC-1 cells [2]; 37° C.", "value": "robust binding and internalization"}, {"measurement": "Time to perinuclear accumulation", "setting": "PPC-1 cells [2]; phage, 37° C.", "value": 1, "unit": "h"}, {"measurement": "Time to plasma membrane association", "setting": "PPC-1 cells [2]; phage, 37° C.", "value": 15, "unit": "min"}, {"measurement": "Effect of pre-incubation of cells with excess phage on RPARPAR-Q-dot internalization", "setting": "PPC-1 cells [3]", "value": "inhibited"}, {"measurement": "Phage binding", "setting": "PC-3", "value": "bound"}, {"measurement": "Phage binding", "setting": "4T1", "value": "bound"}, {"measurement": "Phage binding", "setting": "B16F10", "value": "bound"}, {"measurement": "Phage binding over control phage", "setting": "M21 melanoma cells", "value": "did not bind; also recorded: do not bind nor internalize"}, {"measurement": "Phage binding", "setting": "[4]", "value": "bound"}, {"measurement": "Phage binding", "setting": "MIA PaCa-2", "value": "bound"}, {"measurement": "Phage binding", "setting": "PDAC1.3", "value": "bound"}, {"measurement": "Phage binding", "setting": "[5]", "value": "binding was also seen"}, {"measurement": "Phage binding", "setting": "[6]", "value": "binding was also seen"}, {"measurement": "Phage binding", "setting": "[7]", "value": "also bound"}, {"measurement": "Penetration into tissue parenchyma (lungs)", "setting": "[8]", "value": "able to penetrate into tissue parenchyma"}, {"measurement": "Phage immunoreactivity in lung sections", "setting": "[8]", "value": "seen throughout the tissue"}, {"measurement": "Accumulation of intravenously injected phage in the heart", "setting": "[8]; 20 minutes of circulation", "value": "to a lesser extent"}, {"measurement": "Accumulation of intravenously injected phage in the lungs", "setting": "[8]; 20 minutes of circulation", "value": "accumulated strongly"}]}
